Tested on: NCI/ADR-RES complex spheroid viability
Test: Anticancer human tumor NCI/ADR-RES cell line growth inhibition;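 note: spheroids exposed to compounds for 7 days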;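 for viability, T/C: 100% = DMSO vehicle treated spheroids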
Conditions: for IC50: curve of first compound; for viability, T/C: stronger effect = lower value
How it was run: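 Multicellular complex spheroids of tumor cells with human endothelial cells (HUVEC) and mesenchymal stem cells; the LSD1 inhibitor iadademstat was combined with standard-of-care or investigational agents. Top concentration at or near clinical Cmax, half-log dilutions; final DMSO ≤0.25%.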

[1] = second compound 0.1 µM, first compound 0.00949 µM
[2] = second compound 0.1 µM, first compound 0.03 µM
[3] = second compound 0.1 µM, first compound 0.0949 µM
[4] = second compound 0.1 µM, first compound 0.3 µM
[5] = second compound 0.1 µM, first compound 0.949 µM
[6] = second compound 0.1 µM, first compound 3 µM
[7] = second compound 0.316 µM, first compound 0.00949 µM
[8] = second compound 0.316 µM, first compound 0.03 µM
[9] = second compound 0.316 µM, first compound 0.0949 µM
[10] = second compound 0.316 µM, first compound 0.3 µM
[11] = second compound 0.316 µM, first compound 0.949 µM
[12] = second compound 0.316 µM, first compound 3 µM
[13] = second compound 1 µM, first compound 0.00949 µM
[14] = second compound 1 µM, first compound 0.03 µM
[15] = second compound 1 µM, first compound 0.0949 µM
[16] = second compound 1 µM, first compound 0.3 µM
[17] = second compound 1 µM, first compound 0.949 µM
[18] = second compound 1 µM, first compound 3 µM
[19] = second compound 3.16 µM, first compound 0.00949 µM
[20] = second compound 3.16 µM, first compound 0.03 µM
[21] = second compound 3.16 µM, first compound 0.0949 µM
[22] = second compound 3.16 µM, first compound 0.3 µM
[23] = second compound 3.16 µM, first compound 0.949 µM
[24] = second compound 3.16 µM, first compound 3 µM
[25] = second compound 10 µM, first compound 0.00949 µM
[26] = second compound 10 µM, first compound 0.03 µM
[27] = second compound 10 µM, first compound 0.0949 µM
[28] = second compound 10 µM, first compound 0.3 µM
[29] = second compound 10 µM, first compound 0.949 µM
[30] = second compound 10 µM, first compound 3 µM

## NS(=O)(=O)OCC1CC(n2ccc3c(NC4CCc5ccccc54)ncnc32)CC1O (stereo not given) + NC1CC1c1ccc(-c2cccc(O)c2)cc1
Second compound 0.1 µM
  IC50: 1.13 µM
Second compound 0.316 µM
  IC50: 1.03 µM
Second compound 1 µM
  IC50: 1.16 µM
Second compound 3.16 µM
  IC50: 1.11 µM
Second compound 10 µM
  IC50: 1.13 µM
[1]
  viability, T/C: 99.2%
[2]
  viability, T/C: 90.5%
[3]
  viability, T/C: 92.1%
[4]
  viability, T/C: 78.4%
[5]
  viability, T/C: 55%
[6]
  viability, T/C: 20.6%
[7]
  viability, T/C: 96.7%
[8]
  viability, T/C: 100%
[9]
  viability, T/C: 85.9%
[10]
  viability, T/C: 77.5%
[11]
  viability, T/C: 51.6%
[12]
  viability, T/C: 22.2%
[13]
  viability, T/C: 98.5%
[14]
  viability, T/C: 88.4%
[15]
  viability, T/C: 86.7%
[16]
  viability, T/C: 78.6%
[17]
  viability, T/C: 54.5%
[18]
  viability, T/C: 23.2%
[19]
  viability, T/C: 96.8%
[20]
  viability, T/C: 94.8%
[21]
  viability, T/C: 86.3%
[22]
  viability, T/C: 77%
[23]
  viability, T/C: 54.3%
[24]
  viability, T/C: 22.2%
[25]
  viability, T/C: 92%
[26]
  viability, T/C: 89.9%
[27]
  viability, T/C: 81%
[28]
  viability, T/C: 75.1%
[29]
  viability, T/C: 53.3%
[30]
  viability, T/C: 27%

## Nc1ccccc1NC(=O)c1ccc(CNC(=O)OCc2cccnc2)cc1 + NC1CC1c1ccc(-c2cccc(O)c2)cc1
Second compound 0.1 µM
  IC50: 0.824 µM
Second compound 0.316 µM
  IC50: 0.907 µM
Second compound 1 µM
  IC50: 0.906 µM
Second compound 3.16 µM
  IC50: 0.976 µM
Second compound 10 µM
  IC50: 0.882 µM
[1]
  viability, T/C: 93.7%
[2]
  viability, T/C: 97.9%
[3]
  viability, T/C: 85.7%
[4]
  viability, T/C: 69.1%
[5]
  viability, T/C: 48.3%
[6]
  viability, T/C: 27.2%
[7]
  viability, T/C: 99.2%
[8]
  viability, T/C: 95.9%
[9]
  viability, T/C: 95%
[10]
  viability, T/C: 72.8%
[11]
  viability, T/C: 50.3%
[12]
  viability, T/C: 25.8%
[13]
  viability, T/C: 93.3%
[14]
  viability, T/C: 91.1%
[15]
  viability, T/C: 85.3%
[16]
  viability, T/C: 71.5%
[17]
  viability, T/C: 49.1%
[18]
  viability, T/C: 26.7%
[19]
  viability, T/C: 93.5%
[20]
  viability, T/C: 89.5%
[21]
  viability, T/C: 80.5%
[22]
  viability, T/C: 71%
[23]
  viability, T/C: 49.4%
[24]
  viability, T/C: 30.8%
[25]
  viability, T/C: 83.4%
[26]
  viability, T/C: 84.1%
[27]
  viability, T/C: 74.7%
[28]
  viability, T/C: 60.9%
[29]
  viability, T/C: 51.3%
[30]
  viability, T/C: 31%

## O=C(C=Cc1cccc(S(=O)(=O)Nc2ccccc2)c1)NO + NC1CC1c1ccc(-c2cccc(O)c2)cc1
Second compound 0.1 µM
  IC50: 0.0794 µM
Second compound 0.316 µM
  IC50: 0.0855 µM
Second compound 1 µM
  IC50: 0.079 µM
Second compound 3.16 µM
  IC50: 0.09 µM
Second compound 10 µM
  IC50: 0.0733 µM
[1]
  viability, T/C: 110%
[2]
  viability, T/C: 85.7%
[3]
  viability, T/C: 42.1%
[4]
  viability, T/C: 17.2%
[5]
  viability, T/C: 5.63%
[6]
  viability, T/C: 1.57%
[7]
  viability, T/C: 102%
[8]
  viability, T/C: 86.8%
[9]
  viability, T/C: 44.9%
[10]
  viability, T/C: 17.3%
[11]
  viability, T/C: 7.86%
[12]
  viability, T/C: 1.94%
[13]
  viability, T/C: 107%
[14]
  viability, T/C: 77.5%
[15]
  viability, T/C: 46%
[16]
  viability, T/C: 18.2%
[17]
  viability, T/C: 8.7%
[18]
  viability, T/C: 1.47%
[19]
  viability, T/C: 97%
[20]
  viability, T/C: 76.4%
[21]
  viability, T/C: 49.8%
[22]
  viability, T/C: 22.1%
[23]
  viability, T/C: 9.4%
[24]
  viability, T/C: 1.58%
[25]
  viability, T/C: 102%
[26]
  viability, T/C: 71.5%
[27]
  viability, T/C: 44.1%
[28]
  viability, T/C: 22.5%
[29]
  viability, T/C: 13.5%
[30]
  viability, T/C: 3.92%

Source: PubChem BioAssay AID1918955 (Molecular Pharmacology Branch, DTP, NCI, 2023)
